Values after ≈ are worked out from the molar mass of the structure shown.

This is an account of results in ChEMBL document CHEMBL1137072, “Peptide deformylase inhibitors with activity against respiratory tract pathogens” (Bioorg Med Chem Lett, 2004).

Assay [1] concerns Escherichia coli. The assay can be described thus: Minimum inhibitory concentration required for primary screening against in-house strain of Escherichia coli tested in vitro. Type of assay: functional.
Assay [2] relates to Staphylococcus capitis. Kind of assay: Minimum inhibitory concentration required for primary screening against in-house strain of Staphylococcus capitis tested in vitro. Type of assay: functional.
For assay [3], the target named is T1, Peptide deformylase (Escherichia coli, UniProt Q9JN24).
T1 sequence (Q9JN24 whole entry): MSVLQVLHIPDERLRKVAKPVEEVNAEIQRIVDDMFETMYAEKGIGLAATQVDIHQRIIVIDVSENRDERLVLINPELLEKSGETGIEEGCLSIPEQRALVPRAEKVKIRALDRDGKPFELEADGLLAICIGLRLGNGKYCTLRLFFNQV
The assay can be described thus: Inhibitory activity against Escherichia coli peptide deformylase (PDF) Nickel containing enzyme.

The subject of assay [4] is Haemophilus influenzae. Kind of assay: Minimum inhibitory concentration required for primary screening against in-house strain of Haemophilus influenzae tested in vitro; Range-0.125-2. Type of assay: functional.
In assay [5] the test system is Moraxella catarrhalis. Kind of assay: Minimum inhibitory concentration required for primary screening against in-house strain of Moraxella catarrhalis tested in vitro. Type of assay: functional.
In assay [6] the test system is Streptococcus pneumoniae. The assay can be described thus: Minimum inhibitory concentration required for primary screening against in-house strain of Streptococcus pneumoniae tested in vitro; Range- 0.5-1. Type of assay: functional.
Assay [7] relates to Haemophilus influenzae. The assay can be described thus: Minimum inhibitory concentration required for primary screening against in-house strain of Haemophilus influenzae tested in vitro; Range- 0.25-2. Type of assay: functional.
The subject of assay [8] is Streptococcus pneumoniae. Kind of assay: Minimum inhibitory concentration required for primary screening against in-house strain of Streptococcus pneumoniae tested in vitro; Range- 1-2. Type of assay: functional.
The subject of assay [9] is Haemophilus influenzae. Kind of assay: Minimum inhibitory concentration required for primary screening against in-house strain of Haemophilus influenzae tested in vitro; Range- 0.5-4. Type of assay: functional.
The test system of assay [10] is Moraxella catarrhalis. The assay can be described thus: Minimum inhibitory concentration required for primary screening against in-house strain of Moraxella catarrhalis tested in vitro; Range- 0.015-0.12. Type of assay: functional.
Assay [11] relates to Streptococcus pneumoniae. Kind of assay: Minimum inhibitory concentration required for primary screening against in-house strain of Streptococcus pneumoniae tested in vitro; Range- 0.25-0.5. Type of assay: functional.
For assay [12], the system named is Streptococcus pneumoniae. Kind of assay: Minimum inhibitory concentration required for primary screening against in-house strain of Streptococcus pneumoniae tested in vitro; Range- 0.06-2. Type of assay: functional.
Assay [13] relates to Streptococcus pneumoniae. Kind of assay: Minimum inhibitory concentration required for primary screening against in-house strain of Streptococcus pneumoniae tested in vitro. Type of assay: functional.
The test system of assay [14] is Haemophilus influenzae. Kind of assay: Minimum inhibitory concentration required for primary screening against in-house strain of Haemophilus influenzae tested in vitro; Range- 0.5-8. Type of assay: functional.
In assay [15] the test system is Moraxella catarrhalis. The assay can be described thus: Minimum inhibitory concentration required for primary screening against in-house strain of Moraxella catarrhalis tested in vitro; Range- 0.125-0.25. Type of assay: functional.

For `CCCC[C@H](CN(O)C=O)C(=O)N[C@H](C(=O)c1ccccc1)C(C)(C)C`, the MIC in assay [1] and in [2] was 12.5 µM (≈ 4.53 µg/mL) throughout.
Usually IC50 stands for the concentration that inhibits the measured activity by half. A high value points to weaker potency in that assay. For `CCCC[C@H](CN(O)C=O)C(=O)N[C@H](C(=O)c1ccc(NS(C)(=O)=O)cc1)C(C)(C)C`, the IC50 in assay [3] was determined as 4 nM. This lies in the single-digit nanomolar range.
Still for that read-out and setting: as for `CCCC[C@H](CN(O)C=O)C(=O)N[C@H](C(=O)c1ccc(OC)cc1)C(C)(C)C`, the figure is 1 nM.
On to `CC(C)(C)[C@H](NC(=O)[C@H](CC1CCCC1)CN(O)C=O)C(=O)c1ccc(S(C)(=O)=O)cc1`, for which the MIC in assay [1] is 25 µM (≈ 11.7 µg/mL); in [2], 6.25 µM (≈ 2.92 µg/mL). In addition, the IC50 in assay [3] was found to be 10 nM.
For `CC(C)(C)[C@H](NC(=O)[C@H](CC1CCCC1)CN(O)C=O)C(=O)c1ccc(N2CCN(CCO)CC2)c(F)c1`, the MIC in [4] is less than 2 µg/mL; in assay [5], less than 0.125 µg/mL; in assay [6] it was less than 1 µg/mL.
`CC(C)(C)[C@H](NC(=O)[C@H](CC1CCCC1)CN(O)C=O)C(=O)c1ccc(N2CCN(CCO)CC2)cc1`: the values for the MIC in assay [7], in assay [5] and in [8] were less than 2 µg/mL, less than 0.125 µg/mL and less than 2 µg/mL, respectively. Half-maximal inhibition in assay [3] (IC50) required 2 nM.
With `CCCC[C@H](CN(O)C=O)C(=O)N[C@H](C(=O)c1ccc(F)cc1)C(C)(C)C`, the IC50 in assay [3] amounted to 3 nM.
As to `CC(C)(C)[C@H](NC(=O)[C@H](CC1CCCC1)CN(O)C=O)C(=O)c1cc(F)c(F)cc1N1CCOCC1`, the MIC90 in assay [9] came out at 2 µg/mL (≈ 3.92 µM); in assay [10], 0.12 µg/mL (≈ 0.235 µM); in assay [12], 1 µg/mL (≈ 1.96 µM). The MIC in assay [7] is less than 2 µg/mL; in assay [5] it was less than 0.125 µg/mL; in [11], less than 0.5 µg/mL. Moreover, the IC50 in [3] was 0.5 nM.
For the molecule `CC(C)(C)[C@H](NC(=O)[C@H](CC1CCCC1)CN(O)C=O)C(=O)c1ccc(N2CCOCC2)c(F)c1`, the results for the MIC in assay [9], in assay [5] and in assay [13] were less than 4 µg/mL, less than 0.125 µg/mL and 0.25 µg/mL (≈ 0.509 µM), respectively. Moreover, in assay [3], the concentration for half-maximal inhibition (IC50) was 0.6 nM.
Consider `CCCC[C@H](CN(O)C=O)C(=O)N[C@H](C(=O)c1ccccn1)C(C)(C)C`, for which, in [3], the midpoint of inhibition, the IC50, lay at 3 nM.
`CCCC[C@H](CN(O)C=O)C(=O)N[C@H](C(=O)c1cc2ccccc2o1)C(C)(C)C` registered an IC50 in [3] of 4 nM. The same molecule showed an MIC in [2] of 1.5 µM (≈ 0.604 µg/mL).
As to `CC(C)(C)[C@H](NC(=O)[C@H](CC1CCCC1)CN(O)C=O)C(=O)c1cc2ccccc2o1`, the IC50 in assay [3] turned out to be 4 nM. In other words, the single-digit nanomolar range.
In the case of `CC(C)(C)[C@H](NC(=O)[C@H](CC1CCCC1)CN(O)C=O)C(=O)c1ccc(O)cc1`, the MIC in [1] is 6.25 µM (≈ 2.53 µg/mL); in [2], 3.1 µM (≈ 1.25 µg/mL). The IC50 in assay [3] was 2 nM.
On to `COc1ccc(C(=O)[C@@H](NC(=O)[C@H](CC2CCCC2)CN(O)C=O)C(C)(C)C)cc1`, for which the IC50 in assay [3] stood at 3 nM.
In the case of `CC(C)(C)[C@H](NC(=O)[C@H](CC1CCCC1)CN(O)C=O)C(=O)c1ccc(N2CCN(CCN3CCCC3)CC2)c(F)c1`, the MIC in assay [14] was less than 8 µg/mL; in [15], less than 0.25 µg/mL; in assay [11], less than 0.5 µg/mL. In assay [3], this molecule showed an IC50 of 9 nM.
In turn, `CCCC[C@H](CN(O)C=O)C(=O)N[C@H](C(=O)c1ccc(NC(C)=O)cc1)C(C)(C)C` registered an MIC in assay [1] of 12 µM (≈ 5.03 µg/mL). The same molecule displayed an IC50 in [3] of 8 nM.
With `CC(C)(C)[C@H](NC(=O)[C@H](CC1CCCC1)CN(O)C=O)C(=O)c1ccc(N2CCC(O)CC2)cc1`, the results for the MIC in assay [7], in assay [5] and in [13] were less than 2 µg/mL, less than 0.125 µg/mL and 0.25 µg/mL (≈ 0.513 µM), respectively. In addition, the concentration for half-maximal inhibition (IC50) in assay [3] was determined as 2 nM.
`CC(C)(C)[C@H](NC(=O)[C@H](CC1CCCC1)CN(O)C=O)C(=O)c1ccc(F)cc1` yielded an IC50 in assay [3] of 3 nM.
Regarding `CC(C)(C)[C@H](NC(=O)[C@H](CC1CCCC1)CN(O)C=O)C(=O)c1cc(F)c(F)cc1N1CCC(O)CC1`, the MIC is less than 2 µg/mL in assay [7], less than 0.125 µg/mL in assay [5] and less than 0.5 µg/mL in assay [11]. The same molecule had an IC50 in assay [3] of 1 nM.
